In article PMC8734228 (Cancer discovery, 2021):
Read-outs that look alike come from different tables or passages of the source. One block for each molecule: values may come before it.

How the values were obtained:
[1] = test system: FLC1 PDX cells; test: Validation screen, 11-point dose response, 72 h, Cell Titer Glo; format: cell-based, human; details: read-out: EC50 FLC
[2] = test system: FLC PDX cells; test: Validation screen on cells dissociated from FLC PDX; format: cell-based, human
[3] = molecular target: PKCδ; details: read-out: Ki against other kinases: PKCδ; cited from earlier work
[4] = test system: FLC3 PDX cells; test: Validation screen, 11-point dose response, 72 h, Cell Titer Glo; format: cell-based, human; details: read-out: EC50 FLC
[5] = molecular target: PKA; details: read-out: Ki PKA; cited from earlier work
[6] = molecular target: ERK2; details: read-out: Ki against other kinases: ERK2; cited from earlier work
[7] = molecular target: RSK2; details: read-out: Ki against other kinases: RSK2; cited from earlier work
[8] = molecular target: GSK-3β; details: read-out: Ki against other kinases: GSK-3β; cited from earlier work
[9] = test system: FLC2 PDX cells; test: Validation screen, 11-point dose response, 72 h, Cell Titer Glo; format: cell-based, human; details: read-out: EC50 FLC
[10] = test system: FLC4 PDX cells; test: as above; format: cell-based, human; details: read-out: EC50 FLC
[11] = test system: FLC PDX; test: In vivo drug testing of HDAC inhibitors in mice bearing PDX
[12] = test system: FLC1 PDX; test: In vivo drug testing in mice bearing PDX FLC1; details: 2 days, FLC1
[13] = test system: FLC5 PDX; test: In vivo drug testing in mice bearing PDX FLC5; details: panobinostat 2.5mg/kg combined with navitoclax 50 mg/kg
[14] = test system: FLC1 cells; test: Role of ROS: survival with or without N-acetyl cysteine 10mM; format: cell-based, human; details: NAC 10mM, 72 h
[15] = test system: cells dissociated directly from patient tumors (FLC.T6-T11); test: Direct from patient in vitro screening; format: cell-based, human; details: for Drug sensitivity of FLC.T6 compared with derived PDX FLC6 (EC50): cells direct from patient tumor vs cells from its PDX
[16] = molecular target: p70s6k; details: read-out: Ki against other kinases: p70s6k; cited from earlier work
[17] = test system: FLC5 PDX cells; test: Validation screen, 11-point dose response, 72 h, Cell Titer Glo; format: cell-based, human; details: read-out: EC50 FLC
[18] = molecular target: Akt2; details: read-out: Ki against other kinases: Akt2; cited from earlier work
[19] = molecular target: Rock2; details: read-out: Ki against other kinases: Rock2; cited from earlier work
[20] = molecular target: Rock1; details: read-out: Ki against other kinases: Rock1; cited from earlier work
[21] = test system: primary human hepatocytes (PHH); test: Validation counter-screen on primary human hepatocytes; details: 72 h, read-out: EC50 PHH
[22] = molecular target: Akt1; details: read-out: Ki against other kinases: Akt1; cited from earlier work
[23] = molecular target: Akt3; details: read-out: Ki against other kinases: Akt3; cited from earlier work
[24] = test system: FLC5 cells; test: Anchor screen, synergy assay; format: cell-based, human; details: FLC5, ZIP, Bliss and HSA scores
[25] = molecular target: PKC; details: read-out: Ki against other kinases: PKC; printed as PKG/PKC; cited from earlier work
[26] = molecular target: PKG; details: read-out: Ki against other kinases: PKG; printed as PKG/PKC; cited from earlier work

SMILES: Cc1[nH]nc2ccc(-c3cncc(OC[C@@H](N)Cc4ccccc4)c3)cc12 [A-674563]
EC50 ([1]; FLC1, 72 h): 340 nM
Therapeutic window for FLC over PHH ([2]; FLC PDX cells compared with PHH): no therapeutic window
Ki [3]: 360 nM
EC50 ([4]; FLC3, 72 h): 880 nM
Ki [5]: 16 nM
Ki [6]: 260 nM
Ki [7]: 580 nM
Ki [8]: 110 nM
EC50 ([9]; FLC2, 72 h): 700 nM
EC50 ([10]; FLC4, 72 h): 160 nM

Average weight loss ([11]; 10mg/kg IP, 14 days): 11%
Drug sensitivity of FLC.T6 compared with derived PDX FLC6 (EC50) [15]: correlated well
SMILES: Cc1[nH]c2ccccc2c1CCNCc1ccc(/C=C/C(=O)NO)cc1 [panobinostat]
Tumor growth at 7 days ([11]; 10mg/kg IP): −7%
Tumor growth at 14 days ([11]; 10mg/kg IP): 4%
Tumor volume:mouse weight ([11]; 10mg/kg IP, 14 days): stable or decreased
Apoptosis as assayed by TUNEL ([11]; 10mg/kg, after 14 days): no increase in apoptosis
Mitotic figures, Ki67 and pHH3 positive cells in tumors ([11]; 10mg/kg, after 14 days): dramatic decrease
Apoptosis (TUNEL), panobinostat alone compared to vehicle ([12]; panobinostat 10mg/kg alone): no evidence of increased apoptosis
Apoptotic cells (TUNEL) with combined treatment ([12]; panobinostat 10mg/kg combined with A1331852 25mg/kg): many apoptotic cells
Tumor response with combined treatment [13]: partial response
Efficacy ranking in the screen ([2]; ranked by average −log10EC50 for FLC1-5 minus −log10EC50 for PHH): 103
Effect of N-acetyl cysteine (NAC) on the toxicity of the drug [14]: mildly attenuated
Sensitivity of cells tested directly from patients ([15]; 10μM-10nM, 72h, Cell Titer Glo): sensitive

SMILES: NC[C@@](O)(c1ccc(Cl)cc1)c1ccc(-c2cn[nH]c2)cc1 [AT13148]
Ki [16]: 8 nM
EC50 ([17]; Homo sapiens, 72 h): 96 nM
EC50 ([1]; Homo sapiens, 72 h): 39 nM
Ki [18]: 402 nM
Ki [19]: 4 nM
Ki [20]: 6 nM
EC50 ([21]; Homo sapiens, Hepatocyte): 4050 nM
EC50 ([4]; Homo sapiens, 72 h): 590 nM
Ki [22]: 38 nM
Ki [5]: 3 nM
Ki [23]: 50 nM
EC50 ([9]; Homo sapiens, 72 h): 6140 nM
Synergy with A1331852 [24]: some synergy
EC50 ([10]; Homo sapiens, 72 h): 4290 nM
Drug sensitivity of FLC.T6 compared with derived PDX FLC6 (EC50) [15]: outliers

SMILES: CCCCCCOC(=O)[C@]1(O)C[C@@H]2O[C@@]1(C)n1c3ccccc3c3c4c(c5c6ccccc6n2c5c31)C(=O)NC4 [KT5720]
EC50 ([17]; FLC5, 72 h): 3870 nM
EC50 ([1]; FLC1, 72 h): 1610 nM
EC50 [21]: > 10000 nM
EC50 ([4]; FLC3, 72 h): 2710 nM
Ki [5]: 60 nM
Ki [25]: > 2000 nM
Ki [26]: > 2000 nM
EC50 ([9]; FLC2, 72 h): 2140 nM
EC50 ([10]; FLC4, 72 h): 1480 nM
